# Measurements reported in patent US10660789B2, “1,4-dihydropyridine derivatives with HSP modulating activity” (Richter Gedeon NYRT., priority 2011, dated 2020).
# Structures can show the parent of a compound that is named as a salt.
# Tested on: B6SJL-Tg(SOD1*G93A)1Gur/J mice
# Assay: Lifespan of G93A ALS mouse strain
# Format: in vivo
# Text: Amyotrophic lateral sclerosis (ALS) is a fatal neurodegenerative disease, caused by the death of motor neurons mainly in the spinal cord. The main form of familiar (genetic or inherited) ALS is caused by the mutation of superoxide dismutase 1 (SOD1) gene, which results in […] amyloid-like aggregations and progressive neuronal degenerations. […] The “golden standard” of preclinical ALS drug tests is the use of a specific transgenic mouse strain, which harbors high-copy number of human mutated SOD1 gene, having a mutation of G93A.
# The effect of Ex. 23 was investigated on lifespan of G93A ALS mouse strain. A total of 33 transgenic female mice (B6SJL-Tg(SOD1*G93A)1Gur/J) were bred from 4 breeding pairs. The breeding pairs were purchased from the Jackson Laboratory (jax.org). The mice were individually housed in an IVC rack. Standard food pellets and water was available ad libidum. Body weight was monitored daily. The compound Ex. 23 was freshly dissolved in saline every day, and was administered daily intraperitoneally at the onset of symptoms in 10 mg/bwkg. Symptom onset was determined according to ALS-TDI neurological score. Mice treated with Ex. 23 lived longer (FIG. 10) than untreated mice (mean survival 143±3 days; n=8 and 132±3 days; n=25, respectively).
structure (smiles),measurement,setting,value
"COC(=O)C1=C(CCN(C)C)N(C)C(CCN(C)C)=C(C(=O)OC)C1c1ccc(C(F)(F)F)cc1 [Example 23, Dimethyl 4-(4-trifuoromethylphenyl)-2,6-bis-(2-dimethylaminoethyl)-1-methyl-1,4-dihydropyridine-3,5-dicarboxylate dihydrochloride]",mean survival,"10 mg/bwkg daily i.p. from onset of symptoms, n=8, FIG. 10",143 ± 3 days
same,In vivo efficacy,model in which efficacy was shown,ALS
